Experimental data reported in patent US20260216103A1, “USE OF LONG-ACTING ß2AR AGONIST IN PREPARATION OF DRUGS FOR TREATING CANCERS” (HONG KONG SXMETEROL PHARMACEUTICAL CO., LIMITED, priority 2023, published 2026).

What was measured:
[1] = system: cancer stem cells of 17 cancers; test: tumor sphere formation assays of cancer cells, summary over 17 cancers; assay type: cell-based; conditions: summary of Examples 1-9; agonist used alone
Text: (§1) As a gold standard for detecting the self-renewal capability of cancer stem cells in vitro, a tumor sphere formation assay may detect individual cancer stem cell that continuously self-renew in a conditioned medium and form tumor spheres consisting of multiple cells. This in vitro experiment is often used to test the responsiveness of clinical patients to anticancer drugs, and guide in vivo medication of the clinical patients.
Cancer stem cells have self-renewal capability, which determines the initiation and progression of cancers. As a gold standard for detecting the self-renewal capability of cancer stem cells in vitro, a tumor sphere formation assay may detect individual cancer stem cells that continuously self-renew in a conditioned medium and form tumor spheres consisting of multiple cells.

[2] = system: cervical cancer cells Hela; test: tumor sphere formation assay of cervical cancer cells; assay type: cell-based; conditions: 1 μM, 3 μM, or 10 μM, 7 d; FIG. 27
Text: as §1

[3] = system: pancreatic cancer cells CFPAC-1, PANC-1; test: tumor sphere formation assay of pancreatic cancer cells; assay type: cell-based; conditions: 1 μM, 3 μM, or 10 μM, 7 d; FIG. 24
Text: as §1

[4] = system: esophageal cancer cells KYSE-150; test: tumor sphere formation assay of esophageal cancer cells; assay type: cell-based; conditions: 10 μM, 7 d; FIG. 15; P<0.05
Text: as §1
According to culture conditions in Table 5, esophageal cancer cells KYSE-150 were subjected to a tumor sphere formation assay, and treated with salmeterol xinafoate (SX) at a concentration of 10 μM.

B16F10 melanoma cells = test: tumorigenesis experiment with SX-pretreated melanoma cells; assay type: in vivo, mice; conditions: cells treated with 10 μM SX for 3 d
Procedure: (§2) Experimental method and steps: Cancer cells were treated with salmeterol xinafoate (SX) in vitro for 3-7 d, and a subcutaneous or orthotopic tumorigenesis experiment was conducted on mice.
B16F10 melanoma cells were treated with 10 μM salmeterol xinafoate (SX) for 3 d, and cells (1×10^6/mouse) were subcutaneously injected on both sides of the back of mice in a control group and an SX treated group (4 mice/group) to conduct a tumorigenesis experiment. Cancers formed subcutaneously at all 8 injection sites of 4 mice in the control group, and cancers formed subcutaneously also at all 8 injection sites of 4 mice in the SX treated group.
Experimental results in FIG. 10 show cancer growth curves and representative cancer photos.

[5] = system: ovarian cancer cells SKOV3; test: tumor sphere formation assay of ovarian cancer cells; assay type: cell-based; conditions: 1 μM, 3 μM, or 10 μM, 7 d; FIG. 21
Text: as §1

[6] = system: prostate cancer cells PC-3, DU145, RM-1; test: tumor sphere formation assay of prostate cancer cells; assay type: cell-based; conditions: 1 μM, 3 μM, or 10 μM, 7 d; FIG. 19
Text: as §1

[7] = system: KYSE-150 esophageal cancer cells; test: subcutaneous tumorigenesis experiment with SX-pretreated esophageal cancer cells; assay type: in vivo, mice; conditions: cells treated with 10 μM SX for 3 d, 1×10^6/mouse; FIG. 8; P<0.0001 vs control
Procedure: as §2
KYSE-150 esophageal cancer cells were treated with 10 μM salmeterol xinafoate (SX) for 3 d, and cells (1×10^6/mouse) were subcutaneously injected on both sides of the back of mice in a control group and an SX treated group (3 mice/group) to conduct a tumorigenesis experiment.
Experimental results in FIG. 8 show cancer growth curves.

H460 lung cancer cells = test: subcutaneous tumorigenesis experiment with SX-pretreated lung cancer cells (H460); assay type: in vivo, mice; conditions: cells treated with 10 μM SX for 7 d
Procedure: as §2
In FIG. 6A, H460 lung cancer cells were treated with 10 μM salmeterol xinafoate (SX) for 7 d, and cells (3×10^5/mouse) were subcutaneously injected on both sides of the back of mice in a control group (7 mice) and an SX treated group (5 mice) to conduct a tumorigenesis experiment.
Experimental results in FIG. 6 show cancer growth curves and representative cancer photos.

OCc1cc(C(O)CNCCCCCCOCCCCc2ccccc2)ccc1O (centres unmarked) [salmeterol xinafoate]
self-renewal capability of cancer stem cells [1]: can significantly inhibit the self-renewal capability of cancer stem cells of 17 cancers
number of tumor spheres (self-renewal capability of cancer stem cells) [2]: inhibited the self-renewal capability of the cervical cancer stem cells in a concentration dependent manner
number of tumor spheres (self-renewal capability of cancer stem cells) [3]: inhibited the self-renewal capability of the pancreatic cancer stem cells in a concentration dependent manner
number of tumor spheres (self-renewal capability of cancer stem cells) [4]: inhibited the self-renewal capability of the esophageal cancer stem cells
cancers formed subcutaneously at injection sites (B16F10 melanoma cells; 1×10^6/mouse, 8 injection sites of 4 mice, control group all 8 sites): 8
cancer growth curves (initiation and progression) (B16F10 melanoma cells; FIG. 10, P<0.0001 vs control): inhibits the initiation and progression of orthotopic melanoma
number of tumor spheres (self-renewal capability of cancer stem cells) [5]: inhibited the self-renewal capability of the ovarian cancer stem cells in a concentration dependent manner
number of tumor spheres (self-renewal capability of cancer stem cells) [6]: inhibited the self-renewal capability of the prostate cancer stem cells in a concentration dependent manner
cancer growth curves (initiation and progression) [7]: inhibits the initiation and progression of subcutaneous esophageal cancer
cancers formed subcutaneously at injection sites (H460 lung cancer cells; 3×10^5/mouse, 10 injection sites of 5 mice, control group 11 at 14 sites): no cancers formed
cancer growth curves (initiation and progression) (H460 lung cancer cells; FIG. 6A, P<0.0001 vs control): inhibits the initiation and progression of subcutaneous lung cancer
